Laboratory results: patent US20260315431A1, “NANOMATERIAL ENCAPSULATED BIOFILM INHIBITORS FOR DENTAL CARIES TREATMENT” (THE UAB RESEARCH FOUNDATION, priority 2023, published 2026)
“Also recorded” adds a separate entry of the source. Marks after values point to notes of the source that are not given here.

Tested on: S. mutans UA159
Test: Gnotobiotic rat model of dental caries (HEBI / HA5 study, Example 1)
Format: in vivo, Fischer 344 rats infected with S. mutans UA159
Set-up: key to Buccal Mean Caries Scores (±SEM) E / Buccal Mean Caries Scores (±SEM) Ds / Buccal Mean Caries Scores (±SEM) Dm / Buccal Mean Caries Scores (±SEM) Dx / Sulcal Mean Caries Scores (± SEM) E / Sulcal Mean Caries Scores (± SEM) Ds / Sulcal Mean Caries Scores (± SEM) Dm / Sulcal Mean Caries Scores (± SEM) Dx / Proximal Mean Caries Scores (± SEM) E: caries scores by the method of Keyes
Conditions: for CFU/mL BAP: Blood Agar Plates; for CFU/mL BAP / CFU/mL MS / Buccal Mean Caries Scores (±SEM) Dx / Sulcal Mean Caries Scores (± SEM) Dx / Buccal Mean Caries Scores (±SEM) Dm / Sulcal Mean Caries Scores (± SEM) Dm / Buccal Mean Caries Scores (±SEM) Ds / Sulcal Mean Caries Scores (± SEM) Ds / Buccal Mean Caries Scores (±SEM) E / Proximal Mean Caries Scores (± SEM) E / Sulcal Mean Caries Scores (± SEM) E: 100 μM (NaF 250 ppm), 4 weeks; for CFU/mL MS: Mitis Salivarius agar; for Buccal Mean Caries Scores (±SEM) Dx / Sulcal Mean Caries Scores (± SEM) Dx: dentinal extensive; for Buccal Mean Caries Scores (±SEM) Dx / Sulcal Mean Caries Scores (± SEM) Dx / Buccal Mean Caries Scores (±SEM) Dm / Sulcal Mean Caries Scores (± SEM) Dm / Buccal Mean Caries Scores (±SEM) Ds / Sulcal Mean Caries Scores (± SEM) Ds / Buccal Mean Caries Scores (±SEM) E / Proximal Mean Caries Scores (± SEM) E / Sulcal Mean Caries Scores (± SEM) E: topical twice daily; for Buccal Mean Caries Scores (±SEM) Dm / Sulcal Mean Caries Scores (± SEM) Dm: dentinal moderate; for Buccal Mean Caries Scores (±SEM) Ds / Sulcal Mean Caries Scores (± SEM) Ds: dentinal slight; for Buccal Mean Caries Scores (±SEM) E / Proximal Mean Caries Scores (± SEM) E / Sulcal Mean Caries Scores (± SEM) E: enamel
Experimental: Reduction of S. mutans virulence in vivo by HA5 or HEBI. The effects of compound HA5 and HEBI on S. mutans virulence were evaluated using a well-established gnotobiotic rat model of dental caries 67. Hydrogel microparticles with no drug were used to ensure that the observed anti-virulence activity observed with HEBI was not related to the hydrogel material. The standard NaF (250 ppm) was included as a positive control. A (vehicle+infection only) group was included as a negative control. All rats in the experimental groups and control groups were colonized with S. mutans UA159. […] Similar reductions in caries scores were also observed in proximal enamel caries scores (Table 3). An evaluation of the effect of the treatment on proximal dentinal scores was unable to be performed as there were no significant proximal dentinal lesions for the control and treated groups in this study. […] The observed reduction in caries scores by HA5 and HEBI were similar with HEBI displaying slightly better in vivo activity, possibly due to the pH-dependent slow release. The observed reduction in caries scores by HA5 or HEBI is lower than the 250 ppm NaF treatment. However, it should be noted that the concentration of NaF (250 ppm=5.95 mM) is about 59-fold higher than HA5 (100 μM). At the end of the study, the animals were euthanized, their mandibles excised for microbiological analysis of plaque samples on MS agar plates and BAP and for scoring of caries by the method of Keyes^68 to determine the bacterial colonization. […] All in vivo experimental protocols were approved by the University of Alabama at Birmingham Institutional Animal Care and Use Committee (protocol No: IACUC-20047). The methods were carried out in accordance with the relevant guidelines and regulations.
Rat model of dental caries. In vivo studies of colonization and virulence of S. mutans were evaluated using a previously reported rat model of dental caries^71. Offspring of gnotobiotic Fischer 344 rats used in this experiment were bred and maintained in trexler isolators. Male and female rat pups were removed from isolators at 20 days of age and randomly assigned into 5 treatment groups of 5 rats/group in cages with filter tops. Rats were then infected with S. mutans UA159 strain by oral swabbing daily for four consecutive days with a fresh overnight culture of S. mutans UA159. Rats were provided with caries promoting Teklad Diet 305 containing […] (Harlan Laboratories, Inc., Indianapolis, IN) and sterile drinking water ad libitum. Oral swabs were taken 5 days post-infection and plated on Todd Hewitt (TH) agar plates and incubated at 37° C. in an environment of 5% CO2 in the air to confirm colonization. Rats were weighed at weaning and at the termination of the experiment. One-week post-infection, the molars of the rats were treated topically twice daily for 4 weeks with the test compounds using camel-hair brushes. The five treatment groups used in this study were: 1) HEBI (100 μM); 2) HA5 (100 μM); 3) hydrogel encapsulated PBS (no drug) containing 0.1% DMSO (negative control), 4) 250 ppm NaF (positive control) and 5) infected untreated group (negative control). Drinking water was withheld for 60 min following each treatment with the compound. Animals were weighed at weaning and at the termination of the experiment. On day 60, the rats were sacrificed using CO2 followed by cervical dislocation or bilateral thoracotomy. The mandibles were surgically removed and cleaned of excess tissue to assess the level of bacteria present and the extent of caries formation. The right mandibles from each rat were placed in a tube containing phosphate buffer (3 mL), placed on ice and sonicated (10 sec) to release bacteria from the molars. Each sample was serially diluted, plated on blood agar plates (BAP) and mitis-salivarius (MS) agar plates and incubated in an environment of 5% CO2 at 37° C. to quantify the level of total bacteria and S. mutans present in the plaque. […]

SMILES	effect on bacterial colonization (4-week treatment, 100 μM)	reduction in caries scores (4-week treatment, 100 μM)	CFU/mL BAP	CFU/mL MS	Buccal Mean Caries Scores (±SEM) Dx	Sulcal Mean Caries Scores (± SEM) Dx	Buccal Mean Caries Scores (±SEM) Dm	Sulcal Mean Caries Scores (± SEM) Dm	Buccal Mean Caries Scores (±SEM) Ds	Sulcal Mean Caries Scores (± SEM) Ds	Buccal Mean Caries Scores (±SEM) E	Proximal Mean Caries Scores (± SEM) E	Sulcal Mean Caries Scores (± SEM) E
O=C1/C(=C/c2cc(O)c(O)cc2O)Oc2ccccc21 [HA5, 2-[(2′,4′,5′-Trihydroxyphenyl)methylidene]-2,3-dihydro-1-benzofuran-3-one]	not significant; also recorded: without affecting the bacterial colonization significantly	significant reduction in buccal, sulcal, and proximal dental caries scores	3.0 ± 1.0 CFU/mL (×10^6)	2.5 ± 0.8 CFU/mL (×10^6)	2.0 ± 0.7	4.4 ± 0.9	3.8 ± 0.2	8.8 ± 0.9	6.0 ± 0.4	16.2 ± 0.4	11.0 ± 0.3	4.0 ± 0.0	22.0 ± 0.6
[F-].[Na+] [NaF, reference compound]	–	–	4.0 ± 0.9 CFU/mL (×10^6)	3.4 ± 0.5 CFU/mL (×10^6)	0.0 ± 0.0	1.0 ± 0.3	1.0 ± 0.8	4.6 ± 0.2	2.4 ± 0.8	11.2 ± 0.4	5.0 ± 0.7	1.2 ± 0.8	14.2 ± 0.7
